Assay results: the NIST ThermoML archive (doi:10.1021/je400056z)
± gives the expanded uncertainty stated by the source.

Assay: xn = mol fraction of the nth substance listed
Details: Liquid, Vibrating tube method

CCCCCCC [heptane] + O=C=O
Details	mass density [kg/m3]
332.8 K, 25003 kPa, x2 = 0.0218	677.55 ± 0.48
332.83 K, 6993 kPa, x2 = 0.5085	682.63 ± 0.32
332.83 K, 8019 kPa, x2 = 0.5085	685.45 ± 0.32
332.83 K, 9012 kPa, x2 = 0.5085	688 ± 0.32
332.83 K, 10004 kPa, x2 = 0.5085	690.4 ± 0.33
332.83 K, 11006 kPa, x2 = 0.5085	692.81 ± 0.34
332.83 K, 12005 kPa, x2 = 0.5085	695.15 ± 0.34
332.83 K, 13003 kPa, x2 = 0.5085	697.36 ± 0.35
332.83 K, 13999 kPa, x2 = 0.5085	699.53 ± 0.36
332.83 K, 15005 kPa, x2 = 0.5085	701.72 ± 0.36
332.83 K, 16003 kPa, x2 = 0.5085	703.82 ± 0.37
332.83 K, 17000 kPa, x2 = 0.5085	706.1 ± 0.38
332.83 K, 18006 kPa, x2 = 0.5085	708.26 ± 0.38
332.83 K, 19000 kPa, x2 = 0.5085	710.51 ± 0.39
332.83 K, 20000 kPa, x2 = 0.5085	712.6 ± 0.4
332.83 K, 20991 kPa, x2 = 0.5085	714.75 ± 0.4
332.83 K, 22000 kPa, x2 = 0.5085	716.83 ± 0.41
332.83 K, 23003 kPa, x2 = 0.5085	718.86 ± 0.41
332.83 K, 24000 kPa, x2 = 0.5085	720.81 ± 0.42
332.83 K, 25002 kPa, x2 = 0.5085	722.78 ± 0.43
342.59 K, 5015 kPa, x2 = 0.3148	660.43 ± 0.3
342.59 K, 6006 kPa, x2 = 0.3148	662.35 ± 0.31
342.59 K, 7008 kPa, x2 = 0.3148	664.12 ± 0.31
342.59 K, 8003 kPa, x2 = 0.3148	665.96 ± 0.32
342.59 K, 9023 kPa, x2 = 0.3148	667.75 ± 0.33
342.59 K, 10000 kPa, x2 = 0.3148	669.58 ± 0.34
342.59 K, 11004 kPa, x2 = 0.3148	671.39 ± 0.35
342.59 K, 11999 kPa, x2 = 0.7514	668.27 ± 0.41
342.59 K, 12012 kPa, x2 = 0.3148	673.16 ± 0.35
342.59 K, 13009 kPa, x2 = 0.3148	674.92 ± 0.36
342.59 K, 13078 kPa, x2 = 0.7514	677.39 ± 0.41
342.59 K, 14002 kPa, x2 = 0.7514	684.02 ± 0.42
342.59 K, 14006 kPa, x2 = 0.3148	676.58 ± 0.37
342.59 K, 14980 kPa, x2 = 0.7514	690.44 ± 0.41
342.59 K, 15007 kPa, x2 = 0.3148	678.19 ± 0.38
342.59 K, 16000 kPa, x2 = 0.3148	679.78 ± 0.39
342.59 K, 16000 kPa, x2 = 0.7514	696.41 ± 0.41
342.59 K, 17006 kPa, x2 = 0.7514	701.98 ± 0.41
342.59 K, 17008 kPa, x2 = 0.3148	681.37 ± 0.39
342.59 K, 18003 kPa, x2 = 0.7514	707.17 ± 0.41
342.59 K, 18004 kPa, x2 = 0.3148	682.88 ± 0.4
342.59 K, 18988 kPa, x2 = 0.7514	711.38 ± 0.41
342.59 K, 19000 kPa, x2 = 0.3148	684.38 ± 0.41
342.59 K, 20000 kPa, x2 = 0.3148	685.86 ± 0.42
342.59 K, 20006 kPa, x2 = 0.7514	716.85 ± 0.42
342.59 K, 21010 kPa, x2 = 0.7514	721.31 ± 0.42
342.59 K, 21018 kPa, x2 = 0.3148	687.3 ± 0.43
342.59 K, 22004 kPa, x2 = 0.7514	725.37 ± 0.42
342.59 K, 22006 kPa, x2 = 0.3148	688.68 ± 0.43
342.59 K, 23009 kPa, x2 = 0.7514	729.36 ± 0.42
342.59 K, 23014 kPa, x2 = 0.3148	690.13 ± 0.44
342.59 K, 24006 kPa, x2 = 0.7514	733.15 ± 0.43
342.59 K, 24010 kPa, x2 = 0.3148	691.48 ± 0.45
342.59 K, 24951 kPa, x2 = 0.7514	736.71 ± 0.43
342.59 K, 25016 kPa, x2 = 0.3148	692.87 ± 0.46
342.68 K, 4004 kPa, x2 = 0.0218	646.95 ± 0.29
342.68 K, 5003 kPa, x2 = 0.0218	648.26 ± 0.3
342.68 K, 6004 kPa, x2 = 0.0218	649.55 ± 0.31
342.68 K, 7009 kPa, x2 = 0.0218	650.86 ± 0.32
342.68 K, 7996 kPa, x2 = 0.0218	652.09 ± 0.33
342.68 K, 9017 kPa, x2 = 0.0218	653.32 ± 0.33
342.68 K, 9997 kPa, x2 = 0.0218	654.54 ± 0.34
342.68 K, 11003 kPa, x2 = 0.0218	655.71 ± 0.35
342.68 K, 11998 kPa, x2 = 0.0218	656.85 ± 0.36
342.68 K, 13010 kPa, x2 = 0.0218	657.99 ± 0.37
342.68 K, 14002 kPa, x2 = 0.0218	659.11 ± 0.38
342.68 K, 15008 kPa, x2 = 0.0218	660.22 ± 0.39
342.68 K, 16006 kPa, x2 = 0.0218	661.28 ± 0.4
342.68 K, 17003 kPa, x2 = 0.0218	662.36 ± 0.41
342.68 K, 18003 kPa, x2 = 0.0218	663.38 ± 0.42
342.68 K, 19002 kPa, x2 = 0.0218	664.4 ± 0.43
342.68 K, 20005 kPa, x2 = 0.0218	665.4 ± 0.44
342.68 K, 21007 kPa, x2 = 0.0218	666.43 ± 0.45
342.68 K, 22003 kPa, x2 = 0.0218	667.43 ± 0.45
342.68 K, 23010 kPa, x2 = 0.0218	668.42 ± 0.46
342.68 K, 24005 kPa, x2 = 0.0218	669.41 ± 0.47
342.68 K, 25003 kPa, x2 = 0.0218	670.37 ± 0.48
342.71 K, 13106 kPa, x2 = 0.9496	500.65 ± 1.1
342.71 K, 13985 kPa, x2 = 0.9496	541.93 ± 1
342.71 K, 15012 kPa, x2 = 0.9496	579.95 ± 0.85
342.71 K, 16000 kPa, x2 = 0.9496	609.5 ± 0.75
342.71 K, 17009 kPa, x2 = 0.9496	634.13 ± 0.69
342.71 K, 17984 kPa, x2 = 0.9496	654.42 ± 0.64
342.71 K, 18996 kPa, x2 = 0.9496	672.31 ± 0.6
342.71 K, 19994 kPa, x2 = 0.9496	687.85 ± 0.57
342.71 K, 20999 kPa, x2 = 0.9496	701.79 ± 0.55
342.71 K, 22001 kPa, x2 = 0.9496	714.18 ± 0.53
342.71 K, 23009 kPa, x2 = 0.9496	725.67 ± 0.51
342.71 K, 23985 kPa, x2 = 0.9496	735.74 ± 0.5
342.71 K, 24518 kPa, x2 = 0.9496	740.87 ± 0.5
342.73 K, 8002 kPa, x2 = 0.5085	670.04 ± 0.33
342.73 K, 9011 kPa, x2 = 0.5085	673.34 ± 0.34
342.73 K, 10003 kPa, x2 = 0.5085	676.47 ± 0.34
342.73 K, 11006 kPa, x2 = 0.5085	679.46 ± 0.34
342.73 K, 12005 kPa, x2 = 0.5085	682.3 ± 0.35
342.73 K, 13011 kPa, x2 = 0.5085	685.03 ± 0.36
342.73 K, 14001 kPa, x2 = 0.5085	687.62 ± 0.37
342.73 K, 15001 kPa, x2 = 0.5085	690.13 ± 0.37
342.73 K, 16006 kPa, x2 = 0.5085	692.58 ± 0.38
342.73 K, 17007 kPa, x2 = 0.5085	694.92 ± 0.39
342.73 K, 17999 kPa, x2 = 0.5085	697.18 ± 0.39
342.73 K, 19004 kPa, x2 = 0.5085	699.4 ± 0.4
342.73 K, 20003 kPa, x2 = 0.5085	701.54 ± 0.41
342.73 K, 21007 kPa, x2 = 0.5085	703.69 ± 0.41
342.73 K, 22001 kPa, x2 = 0.5085	705.73 ± 0.42
342.73 K, 23008 kPa, x2 = 0.5085	707.8 ± 0.43
342.73 K, 23998 kPa, x2 = 0.5085	709.81 ± 0.43
342.73 K, 25003 kPa, x2 = 0.5085	711.79 ± 0.44
351.97 K, 7006 kPa, x2 = 0.3148	652.07 ± 0.32
351.97 K, 8006 kPa, x2 = 0.3148	654.34 ± 0.33
351.97 K, 9004 kPa, x2 = 0.3148	656.45 ± 0.34
351.97 K, 10010 kPa, x2 = 0.3148	658.6 ± 0.35
351.97 K, 11002 kPa, x2 = 0.3148	660.62 ± 0.35
351.97 K, 12003 kPa, x2 = 0.3148	662.65 ± 0.36
351.97 K, 13003 kPa, x2 = 0.3148	664.59 ± 0.37
351.97 K, 14001 kPa, x2 = 0.3148	666.48 ± 0.38
351.97 K, 15008 kPa, x2 = 0.3148	668.29 ± 0.39
351.97 K, 15998 kPa, x2 = 0.3148	670.12 ± 0.39
351.97 K, 17018 kPa, x2 = 0.3148	671.87 ± 0.4
351.97 K, 17988 kPa, x2 = 0.3148	673.47 ± 0.41
351.97 K, 19003 kPa, x2 = 0.3148	675.21 ± 0.42
351.97 K, 20004 kPa, x2 = 0.3148	676.85 ± 0.43
351.97 K, 21004 kPa, x2 = 0.3148	678.45 ± 0.44
351.97 K, 22002 kPa, x2 = 0.3148	680.02 ± 0.44
351.97 K, 22992 kPa, x2 = 0.3148	681.54 ± 0.45
351.97 K, 23999 kPa, x2 = 0.3148	683.05 ± 0.46
351.97 K, 25008 kPa, x2 = 0.3148	684.53 ± 0.47
352.3 K, 12013 kPa, x2 = 0.7514	641.2 ± 0.43
352.3 K, 13001 kPa, x2 = 0.7514	649.87 ± 0.48
352.3 K, 14004 kPa, x2 = 0.7514	657.71 ± 0.47
352.3 K, 15036 kPa, x2 = 0.7514	665.3 ± 0.5
352.3 K, 16003 kPa, x2 = 0.7514	671.66 ± 0.47
352.3 K, 17017 kPa, x2 = 0.7514	677.97 ± 0.46
352.3 K, 18016 kPa, x2 = 0.7514	683.63 ± 0.45
352.3 K, 18998 kPa, x2 = 0.7514	689.01 ± 0.45
